Patent US5849802A, “Fungicidal spirocyclic amines” (American Cyanamid Company, priority 1996, dated 1998)

Legend:
Alternaria solani = assay: In vivo fungicidal activity: Tomato Early Blight (TEB); settings: 200 ppm, sprayed before inoculation; further: ranges in brackets are in %
Plasmopara viticola = assay: In vivo fungicidal activity: Grape Downy Mildew (GDM); settings: 200 ppm, sprayed before inoculation; further: ranges in brackets are in %
Septoria nodorum = assay: In vivo fungicidal activity: Wheat Septoria nodorum Blotch (WSN); settings: 200 ppm, sprayed before inoculation
Method: Test compounds are dissolved in acetone and diluted with deionized water (95 parts water to 5 parts acetone) containing 0.05% TWEEN 20®, a polyoxyethylene sorbitan monolaurate surfactant manufactured by Atlas Chemical Industries, to give a concentration of 200 ppm.
The plants are sprayed with the test solutions, dried and inoculated with fungi later the same day. When disease symptom development is optimal, the plants are rated for disease control according to the rating scale shown below. Each test contains inoculated treated plants, inoculated untreated plants and a inoculated plants treated with reference fungicides.

Pythium ultimum = assay: In vitro fungicidal activity: growth inhibition (PYTH UL); type: cell-based; settings: 25 ppm, 3-7 days at 22° C., nutrient broth; further: ranges in brackets are in %
Method: (§1) Test compounds are dissolved in acetone then diluted with deionize water (9 parts water: 1 part acetone), and dispersed into cell well plates containing a suspension of ground fungal mycelium in a nutrient broth resulting in a final concentration of 25 ppm of the test compound. Assay plates are incubated for 3-7 days at 22° C. Growth inhibition is measured visually and is rated using the following scale: […]

[1] = tested on: Erysiphe graminis f. sp. tritici; assay: In vivo fungicidal activity: Wheat Powdery Mildew (WPM); settings: 200 ppm, sprayed before inoculation; further: ranges in brackets are in %
Rhizoctonia solani = assay: In vitro fungicidal activity: growth inhibition (RHIZ SO); type: cell-based; settings: 25 ppm, 3-7 days at 22° C., nutrient broth; further: ranges in brackets are in %
Method: as §1

Venturia inaequalis = assay: In vivo fungicidal activity: Apple Scab (AS); settings: 200 ppm, sprayed before inoculation; further: ranges in brackets are in %
[2] = tested on: Pyricularia grisea f. sp. oryzae; type: in vivo; settings: 200 ppm, sprayed before inoculation, Rice Blast
Botrytis cinerea = assay: In vivo fungicidal activity: Pepper Botrytis (PB); settings: 200 ppm, sprayed before inoculation; further: ranges in brackets are in %
Cercospora beticola = assay: In vivo fungicidal activity: Sugar Beet Cercospora (SBC); settings: 200 ppm, sprayed before inoculation; further: ranges in brackets are in %
[3] = tested on: Fusarium oxysporium f. sp. cucumerinum; assay: In vitro fungicidal activity: growth inhibition (FUS OXC); type: cell-based; settings: 25 ppm, 3-7 days at 22° C., nutrient broth; further: ranges in brackets are in %
Method: as §1

[4] = tested on: Pseudocercosporella herpotrichoides; assay: In vitro fungicidal activity: growth inhibition (PSDC HE); type: cell-based; settings: 25 ppm, 3-7 days at 22° C., nutrient broth; further: ranges in brackets are in %
Method: as §1

SMILES | disease control rating, TEB (Alternaria solani) | disease control rating, GDM (Plasmopara viticola) | disease control rating, WSN (Septoria nodorum) | growth inhibition rating, PYTH UL (Pythium ultimum) | disease control rating, WPM [1] | growth inhibition rating, RHIZ SO (Rhizoctonia solani) | disease control rating, AS (Venturia inaequalis) | disease control rating, RB [2] | disease control rating, PB (Botrytis cinerea) | disease control rating, SBC (Cercospora beticola) | growth inhibition rating, FUS OXC [3] | growth inhibition rating, PSDC HE [4]
CCCCC(CC)NC1CCC2(CCC(C(C)(C)C)CC2)C1 (stereo not drawn) [Example 2] | 0 (0) | 8 (96-99) | 0 (0) | 9 (100) | 8 (96-99) | 7 (90-99) | 8 (96-99) | 0 (0) | 9 (100) | 4 (45-59) | 0 (0) | 9 (100)
CC(C)CNC1CCC2(CCC(C(C)(C)C)CC2)C1 (stereo not drawn) [Example 8] | 0 (0) | 0 (0) | 4 (45-59) | 7 (90-99) | 5 (60-74) | 9 (100) | 8 (96-99) | 0 (0) | 6 (75-89) | 6 (75-89) | 0 (0) | 7 (90-99)
CC1CC(C)CN(C2CCC3(CCC(C(C)(C)C)CC3)C2)C1 (stereo not drawn) [Example 5] | 0 (0) | 5 (60-74) | 4 (45-59) | 0 (0) | 8 (96-99) | 0 (0) | 6 (75-89) | 0 (0) | 9 (100) | 7 (90-95) | 0 (0) | 0 (0)
CN(C1CCCCC1)C1CCC2(CCC(C(C)(C)C)CC2)C1 (stereo not drawn) [Example 9] | 0 (0) | 2 (15-29) | 6 (75-89) | 7 (90-99) | 7 (90-95) | 9 (100) | 8 (96-99) | 0 (0) | 8 (96-99) | 4 (45-59) | 0 (0) | 7 (90-99)
C[C@@H]1CN(C2CCC3(CCC(C(C)(C)C)CC3)C2)C[C@H](C)O1 (stereo partly drawn) [Example 4] | 0 (0) | 0 (0) | 7 (90-95) | 0 (0) | 9 (100) | 0 (0) | 0 (0) | 0 (0) | 9 (100) | 7 (90-95) | 0 (0) | 0 (0)
CC1CCC(NC2CCC3(CCC(C(C)(C)C)CC3)C2)CC1 (stereo not drawn) [Example 7] | 4 (45-59) | 3 (30-44) | 7 (90-95) | 7 (90-99) | 7 (90-95) | 9 (100) | 4 (45-59) | 0 (0) | 7 (90-95) | 8 (96-99) | 0 (0) | 7 (90-99)
CC(C)(C)C1CCC2(CCC(NC3CCCCCC3)C2)CC1 (stereo not drawn) [Example 11] | 5 (60-74) | 6 (75-89) | 6 (75-89) | 0 (0) | 6 (75-89) | 9 (100) | 7 (90-95) | 0 (0) | 8 (96-99) | 5 (60-74) | 0 (0) | 9 (100)
CC1CCCC(NC2CCC3(CCC(C(C)(C)C)CC3)C2)C1 (stereo not drawn) [Example 6] | 7 (90-95) | 5 (60-74) | 7 (90-95) | 7 (90-99) | 3 (30-44) | 9 (100) | 6 (75-89) | 7 (90-95) | 4 (45-59) | 4 (45-59) | 0 (0) | 7 (90-99)
CC(C)(C)C1CCC2(CCC(NC3CCCCC3)C2)CC1 (stereo not drawn) [Example 3] | 8 (96-99) | 5 (60-74) | 8 (96-99) | 1 (1-29) | 8 (96-99) | 0 (0) | 8 (96-99) | 0 (0) | 9 (100) | 6 (75-89) | 0 (0) | 0 (0)
CC1CCN(C2CCC3(CCC(C(C)(C)C)CC3)C2)CC1 (stereo not drawn) [Example 1] | 0 (0) | 9 (100) | 7 (90-95) | 7 (90-99) | 7 (90-95) | 9 (100) | 6 (75-89) | 0 (0) | 8 (96-99) | 6 (75-89) | 0 (0) | 7 (90-99)
CC(C)(C)C1CCC2(CCC(NC3CCCC3)C2)CC1 (stereo not drawn) [Example 10] | 2 (15-29) | 5 (60-74) | 7 (90-95) | 9 (100) | 6 (75-89) | 9 (100) | 8 (96-99) | 0 (0) | 6 (75-89) | 6 (75-89) | 0 (0) | 9 (100)
CC(C)(C)C1CCC2(CCC(NCc3ccc(Cl)cc3)C2)CC1 (stereo not drawn) [Example 12] | 0 (0) | 0 (0) | 0 (0) | 0 (0) | 5 (60-74) | 9 (100) | 7 (90-95) | 0 (0) | 7 (90-95) | 0 (0) | 0 (0) | 9 (100)
